# Reference: patent EP1650209A1, “Griseusin derivatives and their use as antitumor agents” (Oncotest GmbH, priority 2004, dated 2006)
# Key:
# Assay in all cases: Clonogenic assay, colony formation of tumor stem cells from xenografts
# Type in all cases: cell-based, human
# [1] = tested on: RXF 944LX; conditions: Kidney, xenograft RXF 944LX
# Procedure: (§1) Using various human cancer xenografts in vitro, the concentrations of compound B which inhibit formation of tumor colonies of tumor stem cells by 50% (IC50) and 70% (IC70) are determined in a clonogenic assay. Specifically, each solid tumor of bladder cancer (BXF 1036 and BXF 1299), cervical cancer (CEXF 633 and CEXF 773), colic cancer (CXF 1103, CXF 158, CXF 1729, CXF 264 and CXF 280), gastric cancer (GXF 251 and GXF 97), head and neck cancer (HNXF 536), liver cancer (LIXF 575), non small cell lung cancer comprising adeno, squamous epithelium and large cell carcinoma (LXFA 1012, LXFA 289, LXFA 297, LXFA 526, LXFA 592, LXFA 629, LXFA 677, LXFE 409, LXFL 1072, LXFL 430LX and LXFL 529), small cell lung cancer (LXFS 650), mammary cancer (MAXF 1162, MAXF 1384, MAXF 401, MAXF 449, MAXF 574, MAXF 583, MAXF 713 and MAXF 857), melanoma (MEXF 1341, MEXF 462, MEXF 535 and MEXF 989), ovary cancer (OVXF 899), pancreatic cancer (PAXF 546 and PAXF 736), prostate cancer (DU-145 and PC3M), pleuramesothelioma (PXF 1752), renal cancer (RXF 1220, RXF 1393, RXF 393, RXF 631 and RXF 944LX), and sarcoma (SXF 1301 and SXF 463) engrafted on RPMI nu/nu thymus aplastic nude mice were explanted, disaggregated by mincing and enzymatic digestion for 50 minutes using 125 U/mL DNAse I, 41 U/mL collagenase IV, 100 U/ml hyaluronidase III, and 1 U/mL dispase I, and passed through sieves of 200 µm and 50 µm mesh size and washed twice with sterile PBS-buffer to remove cell aggregated from single cells. The clonogenic assay was performed in a 24 multiwell format. Each of the resulting single cell suspensions was added at a density of 2·10^4 to 6·10^4 cells per well to 0.2 ml of Iscove's Modified Dulbecco's Medium (IMDM) containing 20% fetal calf serum and 0.01% gentamicin supplemented with 0.4% (w/v) agar, and plated onto a bottom layer consisting of the same culture medium containing 0.75% (w/v) agar. After 24 hours IMDM containing 20% fetal calf serum and 0.01 % gentamicin, together with a test compound, was added there to. Then, the plate was incubated at 37°C for 10 to 20 days in a humidified atmosphere of air containing 7.5% CO2. Within this period, in vitro tumor growth led to the formation of colonies with a diameter of > 50µm. Colony counts were performed with an automatic image analysis system (OMNICON 3600). 24 hours prior to evaluation, vital colonies were stained with a vital staining dye. Therefore, 100 µl of a sterile aqueous solution of 2-(4-iodophenyl)-3-(4-nitrophenyl)-5-phenyltetrazolium chloride (1 mg/ml) were added to each well of the plate, and plates were incubated for 24 hours at 37°C in a humidified atmosphere of air containing 7.5% CO2. Inhibition of colony formation was expressed as test versus untreated control (T/C-value [%]). IC50 and IC70 values were determined by plotting compound concentration versus cell viability. Table 3: Inhibition of Colony Formation of Tumor Stem Cells by griseusin derivative B
# [2] = tested on: MAXF 574; conditions: Breast, xenograft MAXF 574, colony formation
# Procedure: as §1
# [3] = tested on: PC3M; conditions: Prostate, xenograft PC3M
# Procedure: as §1
# [4] = tested on: LXFL 430LX; conditions: Lung, non small cell, xenograft LXFL 430LX
# Procedure: as §1
# [5] = tested on: SXF 463; conditions: Sarcoma, xenograft SXF 463, colony formation
# Procedure: as §1
# [6] = tested on: LXFE 409; conditions: Lung, non small cell, xenograft LXFE 409, colony formation
# Procedure: as §1
# [7] = tested on: LXFA 677; conditions: Lung, non small cell, xenograft LXFA 677, colony formation
# Procedure: as §1
# [8] = tested on: LXFA 592; conditions: Lung, non small cell, xenograft LXFA 592, colony formation
# Procedure: as §1
# [9] = tested on: LXFA 289; conditions: Lung, non small cell, xenograft LXFA 289, colony formation
# Procedure: as §1
# [10] = tested on: LXFA 526; conditions: Lung, non small cell, xenograft LXFA 526, colony formation
# Procedure: as §1
# [11] = tested on: PAXF 736; conditions: Pancreas, xenograft PAXF 736, colony formation
# Procedure: as §1
# [12] = tested on: MAXF 1384; conditions: Breast, xenograft MAXF 1384, colony formation
# Procedure: as §1
# [13] = tested on: CXF 1729; conditions: Colon, xenograft CXF 1729, colony formation
# Procedure: as §1
# [14] = tested on: MEXF 1341; conditions: Melanoma, xenograft MEXF 1341, colony formation
# Procedure: as §1
# [15] = tested on: LXFA 297; conditions: Lung, non small cell, xenograft LXFA 297, colony formation
# Procedure: as §1
# [16] = tested on: PXF 1752; conditions: Pleuramesothelio, xenograft PXF 1752, colony formation
# Procedure: as §1
# [17] = tested on: CXF 1103; conditions: Colon, xenograft CXF 1103, colony formation
# Procedure: as §1
# [18] = tested on: HNXF 536; conditions: Head and Neck, xenograft HNXF 536, colony formation
# Procedure: as §1
compound,measurement,setting,value
"C[C@@H]1CC(=O)[C@@H](O)[C@]2(O1)O[C@@H]1CC(=O)O[C@@H]1C1=C2C(=O)c2c(O)cccc2C1=O [Compound B, 4'-dehydro-deacetylgriseusin A]",IC50,[1],0.116 µg/mL
same,IC70,[1],0.171 µg/mL
same,IC50,[2],0.335 µg/mL
same,IC70,[2],0.523 µg/mL
same,IC50,[3],0.419 µg/mL
same,IC70,[3],0.818 µg/mL
same,IC50,[4],0.272 µg/mL
same,IC70,[4],0.468 µg/mL
same,IC50,[5],0.235 µg/mL
same,IC70,[5],0.334 µg/mL
same,IC50,[6],1.732 µg/mL
same,IC70,[6],2.249 µg/mL
same,IC50,[7],0.974 µg/mL
same,IC70,[7],8.063 µg/mL
same,IC50,[8],0.215 µg/mL
same,IC70,[8],0.468 µg/mL
same,IC50,[9],0.218 µg/mL
same,IC70,[9],0.425 µg/mL
same,IC50,[10],0.300 µg/mL
same,IC70,[10],0.512 µg/mL
same,IC50,[11],0.246 µg/mL
same,IC70,[11],0.452 µg/mL
same,IC50,[12],0.606 µg/mL
same,IC70,[12],0.750 µg/mL
same,IC50,[13],0.453 µg/mL
same,IC70,[13],0.630 µg/mL
same,IC50,[14],0.462 µg/mL
same,IC70,[14],0.673 µg/mL
same,IC50,[15],1.461 µg/mL
same,IC70,[15],2.179 µg/mL
same,IC50,[16],0.811 µg/mL
same,IC70,[16],1.253 µg/mL
same,IC50,[17],0.173 µg/mL
same,IC70,[17],0.529 µg/mL
same,IC50,[18],0.350 µg/mL
same,IC70,[18],0.547 µg/mL
